The source of these data is publication PMC6950336, “Co-Occurrence of DON and Emerging Mycotoxins in Worldwide Finished Pig Feed and Their Combined Toxicity in Intestinal Cells” (Toxins, 2019).

Like-named read-outs stand apart in the source and are kept apart here.

For series [1], the system named is IPEC-1 cells. Particulars: for Individual toxicity compared with DON: IPEC-1, 48 h, dose-effect curves; for IC50: read-out: IC50 (dose leading to a 50% reduction in cell viability); for IC50 / IC50 (dose leading to a 50% reduction in cell viability): mean ± SEM of three biological replicates; for Toxicity to intestinal cells at high concentrations: IPEC-1, concentrations of up to 300 µM.

In series [2] the test system is IPEC-1 cells. Put plainly: cells. Particulars: Sus scrofa, 48 h, read-out: IC50 (dose leading to a 50% reduction in cell viability).
In a further series the test system is IPEC-J2. Particulars: read-out: relative IC50; cited from earlier work.
In series [3] the test system is lymphocytes and splenocytes. As to conditions: cited from earlier work.
Series [4] relates to human multiple myeloma blood cells. Particulars: cited from earlier work.
A further series deals with Caco-2. As to conditions: cited from earlier work.
For series [5], the system named is HepG2. Particulars: cited from earlier work.
Series [6] concerns HepG2. As to conditions: HepG2, 2 mM; cited from earlier work.
A further series deals with A549. Particulars: A549, 2 mM; cited from earlier work.
For the next series, the system named is THP-1 cells. As to conditions: THP-1, 2 mM; cited from earlier work.
Where [7] appears, read: lymphocytes and splenocytes, low doses (> 0.1µM).
[8] abbreviates: ratio 3, highest concentration(s): DON 50 µM + EMO 5 µM / ENN-B 17.2 µM / BEA 2.3 µM / ENN-A1 6.5 µM, ENN-B1 6 and 18 µM.

For orientation: IC50 means the concentration that gives 50% inhibition. With `CCC(=O)CCCCC[C@@H]1NC(=O)[C@H]2CCCCN2C(=O)[C@H]([C@@H](C)CC)NC(=O)[C@H](Cc2cn(OC)c3ccccc23)NC1=O` [Apicidin], in the series on IPEC-1 cells [1], the “Toxicity (classification from IC50 compared with DON)” value is reported as “Highly toxic”, the “Toxicity of the emerging mycotoxin alone” value is given as “not toxic” and the “Individual toxicity compared with DON” value is listed as “more toxic than DON”. Further, the “Concentration at which toxicity was confirmed” value in the series with IPEC-1 cells [1] (pig) is above 500 nM. For the same molecule, in the series with IPEC-1 cells [1] (ratio 2, doses lower than DON (5.6 µM) + API (0.09 µM)), the “Toxicity of the combination of DON and the emerging mycotoxin” value is on record as “lower than the toxicity of DON alone, but higher than API alone”. Moreover, in the series on IPEC-1 cells [2], the IC50 was determined as 1.5 ± 0.5 µM.
Regarding `COC1=C(C2=C(OC)C(=O)c3cc4oc(C)cc(=O)c4c(O)c3C2=O)C(=O)c2c(cc3oc(C)cc(=O)c3c2O)C1=O` [Aurofusarin], in the series with IPEC-1 cells [1], the “Toxicity (classification from IC50 compared with DON)” value is given as “Moderately toxic”, the “Toxicity of the emerging mycotoxin alone” value is given as “minimal”, the “Individual toxicity compared with DON” value is listed as “less than that of DON” and the IC50 was found to be 19.1 ± 3.4 µM. In the series on IPEC-J2, the IC50 was 9.3 µM.
With `O=C1N[C@@H](Cc2c[nH]c3ccccc23)C(=O)N2CCC[C@@H]12` [Brevianamide F], in the series on IPEC-1 cells [1], the “Toxicity (classification from IC50 compared with DON)” value is on record as “Non-toxic”, the “Toxicity to intestinal cells at high concentrations” value (“Toxicity to intestinal cells” below) was “not toxic” and the “IC50 (dose leading to a 50% reduction in cell viability)” value is “Non-Toxic”.
For the molecule `O=C1N[C@@H](Cc2ccc(O)cc2)C(=O)N2CCC[C@@H]12` [Cyclo-(L-Pro-L-Tyr)], in the series on IPEC-1 cells [1], the “Toxicity (classification from IC50 compared with DON)” value is on record as “Non-toxic”, the “Toxicity to intestinal cells” value is given as “not toxic” and the “IC50 (dose leading to a 50% reduction in cell viability)” value was “Non-Toxic”.
Turning to `CC1=C[C@H]2O[C@@H]3[C@H](O)C[C@](C)([C@@]2(CO)[C@H](O)C1=O)[C@]31CO1` [Deoxynivalenol], in the series on IPEC-1 cells [1], the “Toxicity (classification from IC50 compared with DON)” value was “Highly toxic” and the IC50 turned out to be 3.2 ± 0.7 µM. Further, in series [3] (setting [7]), the Proliferation result is recorded as “up to 200%”.
As to `Cc1cc(O)c2c(c1)C(=O)c1cc(O)cc(O)c1C2=O` [Emodin], in the series with IPEC-1 cells [1], the “Proliferation induced by the toxin alone” value was “up to 130%”. For the same molecule, the “Toxicity (classification from IC50 compared with DON)” value with IPEC-1 cells [1] is recorded as “Moderately toxic”. The “Individual toxicity compared with DON” value in the series on IPEC-1 cells [1] is “less than that of DON”. Moreover, the “Toxicity of the combination of DON and the emerging mycotoxin” value with IPEC-1 cells [1] (setting [8]) is listed as “less toxic than DON alone”. For the same molecule, the IC50 in the series on IPEC-1 cells [2] is 19 ± 0.7 µM; in the series on IPEC-J2, 13.1 µM; in [4] it was 38 µM.
As for `CC[C@H](C)[C@H]1C(=O)O[C@H](C(C)C)C(=O)N(C)[C@@H](C(C)C)C(=O)O[C@H](C(C)C)C(=O)N(C)[C@@H](C(C)C)C(=O)O[C@H](C(C)C)C(=O)N1C` [Enniatin B1], in the series on IPEC-1 cells [1], the “Toxicity (classification from IC50 compared with DON)” value is on record as “Moderately toxic”, the “Toxicity of the emerging mycotoxin alone” value is recorded as “minimal” and the “Individual toxicity compared with DON” value is recorded as “less than that of DON”. In addition, the “Toxicity of the combination of DON and the emerging mycotoxin” value with IPEC-1 cells [1] (in mixture with DON, ratio 3, in general (exceptions reported separately)) is given as “the same as the toxicity of DON alone”. Moreover, the “Toxicity of the combination of DON and the emerging mycotoxin” value with IPEC-1 cells [1] (ratio 2, highest concentration: DON 50 µM + ENN-B1 4.1 µM / ENN-B 3.6 µM / ENN-A1 1.7 µM) is recorded as “higher than the toxicity of ENN-B1 alone, but lower than the toxicity of DON alone”. Further, in the series on IPEC-1 cells [1] (setting [8]), the “Toxicity of the combination of DON and the emerging mycotoxin” value is recorded as “the same as the toxicity of ENN-B1 alone, but lower than the toxicity of DON alone”. For the same molecule, the concentration for half-maximal inhibition (IC50) in the series on IPEC-1 cells [2] amounted to 13.5 ± 2.5 µM.
For `CC(C)[C@H]1C(=O)O[C@H](C(C)C)C(=O)N(C)[C@@H](C(C)C)C(=O)O[C@H](C(C)C)C(=O)N(C)[C@@H](C(C)C)C(=O)O[C@H](C(C)C)C(=O)N1C` [Enniatin B], in the series on IPEC-1 cells [1], the “Toxicity (classification from IC50 compared with DON)” value is recorded as “Highly toxic”, the “Toxicity of the emerging mycotoxin alone” value is “not toxic” and the “Individual toxicity compared with DON” value is on record as “close to that of DON”. For the same molecule, the “Toxicity of the combination of DON and the emerging mycotoxin” value with IPEC-1 cells [1] (setting [8]) is “lower than the toxicity of either DON alone or ENN-B alone”. Moreover, the IC50 in the series on IPEC-1 cells [2] was determined as 4.4 ± 0.9 µM. For the same molecule, the Toxicity result in the series with Caco-2 is given as “no toxicity at all”. Also, the Toxicity entry with HepG2 [5] is given as “no toxicity at all”.
On to `OCCc1c[nH]c2ccccc12` [Tryptophol], for which, in the series on IPEC-1 cells [1], the “Toxicity (classification from IC50 compared with DON)” value is recorded as “Non-toxic”, the “Toxicity to intestinal cells” value is “not toxic” and the “IC50 (dose leading to a 50% reduction in cell viability)” value is given as “Non-Toxic”. For the same molecule, in the series on HepG2 [6], the DNA damage entry is “induced DNA damage”. Further, in the series on A549, the DNA damage entry was “induced DNA damage”. Further, the DNA damage entry in the series on THP-1 cells was “induced DNA damage”.
Take `CCCC[C@@H](C)[C@@H](OC(=O)C[C@@H](CC(=O)O)C(=O)O)[C@H](C[C@@H](C)C[C@H](O)CCCC[C@@H](O)C[C@H](O)[C@H](C)N)OC(=O)C[C@@H](CC(=O)O)C(=O)O` [fumonisin B1]: the Proliferation entry in series [3] (setting [7]) was “up to 200%”.
As to `CC1=C[C@H]2O[C@@H]3[C@H](O)[C@@H](O)[C@](C)([C@@]2(CO)[C@H](O)C1=O)[C@]31CO1` [nivalenol], in [3], the Proliferation entry was “up to 200%”.
Turning to Beauvericin, the IC50 in the series on IPEC-1 cells [1] amounted to 4.3 ± 1.8 µM.
Still for that read-out and setting: the same measure for Enniatin A1: 1.6 ± 0.3 µM.
Turning to aflatoxin B1, the Proliferation entry in series [3] is on record as “up to 200%”.
